Measurements reported in patent US20120010075A1 (priority 2009, published 2012).
pEC50: −log10 of the molar value. Like-named read-outs stand apart in the source and are kept apart here.

System: Phytophthora capsici
Assay: Fungitoxicity of copper-hydrazone mixtures of different ratios towards Phytophthora capsici (Example 36, Table 12)
Type: cell-based
Details: Phytophthora capsici
Experimental: In vitro fungitoxicity assays against Phytophthora capsici were conducted using the copper-minus AS medium described in Example 28. Mixtures containing hydrazone compound 16 at 200 nM and CuCl2.2H2O at 0.2 μM (1:1 molar ratio), 0.8 μM (1:4 ratio), 3.2 μM (1:16 ratio), 12.5 μM (1:62.5 ratio), 50 μM (1:200 ratio) and 200 μM (1:1000 ratio) were prepared in copper-minus AS medium. Two-fold dilution series of these mixtures were then prepared in 100 μL aliquots of copper-minus AS medium in flat-bottomed 96-well microtiter plates. A suspension of P. capsici zoospores in Chelex-treated water at 5×10^4 spores per mL was prepared as in Example 28. Microtiter plates were inoculated with 100 μL of the spore suspension and incubated at 25° C. for 48 h before assessing fungal growth by measuring light scattering in a NepheloStar plate reader.
Growth inhibition was determined by comparing growth in the presence of copper-hydrazone mixture with growth in control wells lacking the copper-hydrazone mixture. EC50 values were calculated from dose-response curves, and are expressed as the amounts of hydrazone or copper in each test mixture at the rates providing 50% inhibition of growth as compared to a control lacking the copper-hydrazone mixture.

O=C(N/N=C/c1cc(Cl)cc(Cl)c1O)c1ccccc1 [Example 16]
pEC50 (Hydrazone without CuCl2, read-out: Hydrazone EC50): 6.84 | pEC50 (Hydrazone:Cu ratio 1 to 1, read-out: Hydrazone EC50 (amount of hydrazone in mixture at EC50)): 7.15 | pEC50 (Hydrazone:Cu ratio 1 to 4, read-out: Hydrazone EC50 (amount of hydrazone in mixture at EC50)): 7.33 | pEC50 (Hydrazone:Cu ratio 1 to 16, read-out: Hydrazone EC50 (amount of hydrazone in mixture at EC50)): 7.56 | pEC50 (Hydrazone:Cu ratio 1 to 62.5, read-out: Hydrazone EC50 (amount of hydrazone in mixture at EC50)): 7.78 | pEC50 (Hydrazone:Cu ratio 1 to 250, read-out: Hydrazone EC50 (amount of hydrazone in mixture at EC50)): 8.12 | pEC50 (Hydrazone:Cu ratio 1 to 1000, read-out: Hydrazone EC50 (amount of hydrazone in mixture at EC50)): 8.34
